{
  "source": "patent US11814648B2",
  "about": "“Functional oligodendrocytes derived from pluripotent stem cells and methods of making and using the same” (New York Stem Cell Foundation, Inc., priority 2014, dated 2023)",
  "key": {"[1]": {"test_system": "OLIG2-GFP knock-in hESC reporter line", "assay": "Flow cytometric quantification of OLIG2-GFP expression under RA/SHH/SAG conditions", "assay_type": "cell-based, human", "experimental": "FIGS. 2A-2D show the requirement for RA and SHH to derive OLIG2^+ progenitor cells. […] RA at a concentration of 100 nM from day 0 results in the highest yield of GFP^+ cells. […] Negative: hESC line RUES1. […] Error bars are SEM (N=3). […] Only GFP^+ cells form spheres, providing enrichment to the GFP^+ population.\nWe used an OLIG2-GFP knock-in hESC reporter line (Liu et al., 2011) to track OLIG2^+ progenitors by live fluorescent imaging. First, we induced PAX6^+ cells using dual inhibition of SMAD signaling in adherent cultures. Chambers, S. M. et al., Nat Biotechnol. 27:275-80 (2009). Next, to mimic the embryonic spinal cord environment, we applied different concentrations of RA and/or SHH at various times and quantified OLIG2-GFP expression through flow cytometry (FIG. 2A).\nAt day 12, cells were detached and placed into low-attachment plates to promote their aggregation into spheres. The minimum number of cells required to form a sphere was at least 100 cells, and we noted that the majority of cells in the spheres were GFP^+. To investigate this further, we sorted day 12 cultures for GFP, and observed that only the GFP^+ cells formed aggregates (FIG. 2C).\nAt the day of differentiation induction (day 0), medium was switched to Neural Induction Medium, which is mTeSR Custom Medium (Stemcell Technologies) containing the small molecules SB431542 10 μM (Stemgent) and LDN193189 250 nM (Stemgent), as well as 100 nM all-trans-RA (Sigma-Aldrich; St. Louis, Mo.). mTeSR Custom Medium has the same composition as the commercially available mTeSR-1 medium but without five factors that sustain pluripotency, namely lithium chloride, GABA, pipecolic acid, bFGF, and TGFβ1 (Stemcell Technologies). […]\n(§1) Cells were enzymatically harvested by ACCUTASE® treatment for 25 min at 37° C. to obtain a single cell suspension. Cells were then re-suspended in 100 μl of their respective medium containing the appropriate amount of either primary antibody or fluorescence-conjugated antibodies and were incubated on ice for 30 minutes shielded from light. […] Flow cytometry data were analyzed using BD FACSDiva™ software."}, "O4^+ cells": {"test_system": "O4^+ cells", "assay": "FACS-analysis for O4+ cells at day 75 of differentiation", "assay_type": "cell-based, human", "conditions": "RA only vs RA and SAG in the first 12 days", "experimental": "FIGS. 3A-3C show SHH and dual SMAD inhibition requirements for OLIG2^+ progenitors. […] Endogenous SHH levels are higher in the samples that were not exposed to SHH/SAG. Error bars are SEM (N=3). […] Negative Control: APC-conjugated secondary antibody only.\nSpheres were plated on pO/L plates, as described above, in PDGF Medium at day 30, changing ⅔ of the PDGF Medium every other day until day 75 of differentiation. The appearance of O4^+ cells was assessed by live O4 staining from day 55 onwards (FIG. 6). At day 75, O4^+ OPCs could be isolated by FACS (FIG. 7I). Alternatively, for terminal oligodendrocyte differentiation (FIG. 7G-7H), cells were cultured in Glial Medium from day 75, changing ⅔ of the medium every 3 days for two weeks.\nas §1, with “light. When secondary antibodies were used, primary antibodies were washed with PBS and secondary antibodies were applied for 30 minutes on ice.” for “light.”"}},
  "data": [
    {"smiles": "CC1=C(/C=C/C(C)=C/C=C/C(C)=C/C(=O)O)C(C)(C)CCC1", "note": "[RA, all trans retinoic acid]", "values": [
      {"measurement": "OLIG2^+ progenitors generated", "setting": "[1]; 100 nM RA from the beginning of induction, no exogenous SHH, OLIG2-GFP flow cytometry, day 14", "value": 40.6, "unit": "%"},
      {"measurement": "Yield of GFP^+ cells under different RA and SHH conditions", "setting": "[1]; RA 100 nM from day 0, day 14 of differentiation", "value": "highest yield"}
    ]},
    {"smiles": "CN[C@H]1CC[C@H](N(Cc2cccc(-c3ccncc3)c2)C(=O)c2sc3ccccc3c2Cl)CC1", "note": "[SAG, 3-chloro-N-[(1r,4r)-4-(methylamino)cyclohexyl]-N-[3-(pyridin-4-yl)benzyl]benzo[b]thiophene-2-carboxamide]", "values": [
      {"measurement": "OLIG2^+ progenitors yield", "setting": "[1]; SAG replacing recombinant human SHH from day 8, with 100 nM RA from day 0", "value": 70.1, "unit": "%"},
      {"measurement": "Decrease in the O4^+ population in cells not provided with SAG", "setting": "O4^+ cells", "value": 56, "unit": "%"}
    ]}
  ]
}
